# pIC50: −log10 of the molar value.
# Target: human ACC2 (Homo sapiens (Human), UniProt O00763)
# Assay: ACC2 assay, spectrophotometric 384 well assay (NADH-linked kinetic method)
# Format: biochemical
# Details: human ACC2 construct lacking the 128 N-terminal amino acids; coupled lactate dehydrogenase/pyruvate kinase reaction, 340 nm, 25° C.
# Outline: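 N-terminally truncated human ACC2 (lacking 128 residues), expressed in insect cells, was coupled to pyruvate kinase/lactate dehydrogenase, with NADH and acetyl-CoA at 2000 μM and ATP at 500 μM final. The OD340 decrease was followed over 15 min at 25 °C. Slopes were normalised to vehicle and no-acetyl-CoA controls, and IC50 came from four-parameter regression.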
# Sequence of human ACC2 (O00763 129-2458): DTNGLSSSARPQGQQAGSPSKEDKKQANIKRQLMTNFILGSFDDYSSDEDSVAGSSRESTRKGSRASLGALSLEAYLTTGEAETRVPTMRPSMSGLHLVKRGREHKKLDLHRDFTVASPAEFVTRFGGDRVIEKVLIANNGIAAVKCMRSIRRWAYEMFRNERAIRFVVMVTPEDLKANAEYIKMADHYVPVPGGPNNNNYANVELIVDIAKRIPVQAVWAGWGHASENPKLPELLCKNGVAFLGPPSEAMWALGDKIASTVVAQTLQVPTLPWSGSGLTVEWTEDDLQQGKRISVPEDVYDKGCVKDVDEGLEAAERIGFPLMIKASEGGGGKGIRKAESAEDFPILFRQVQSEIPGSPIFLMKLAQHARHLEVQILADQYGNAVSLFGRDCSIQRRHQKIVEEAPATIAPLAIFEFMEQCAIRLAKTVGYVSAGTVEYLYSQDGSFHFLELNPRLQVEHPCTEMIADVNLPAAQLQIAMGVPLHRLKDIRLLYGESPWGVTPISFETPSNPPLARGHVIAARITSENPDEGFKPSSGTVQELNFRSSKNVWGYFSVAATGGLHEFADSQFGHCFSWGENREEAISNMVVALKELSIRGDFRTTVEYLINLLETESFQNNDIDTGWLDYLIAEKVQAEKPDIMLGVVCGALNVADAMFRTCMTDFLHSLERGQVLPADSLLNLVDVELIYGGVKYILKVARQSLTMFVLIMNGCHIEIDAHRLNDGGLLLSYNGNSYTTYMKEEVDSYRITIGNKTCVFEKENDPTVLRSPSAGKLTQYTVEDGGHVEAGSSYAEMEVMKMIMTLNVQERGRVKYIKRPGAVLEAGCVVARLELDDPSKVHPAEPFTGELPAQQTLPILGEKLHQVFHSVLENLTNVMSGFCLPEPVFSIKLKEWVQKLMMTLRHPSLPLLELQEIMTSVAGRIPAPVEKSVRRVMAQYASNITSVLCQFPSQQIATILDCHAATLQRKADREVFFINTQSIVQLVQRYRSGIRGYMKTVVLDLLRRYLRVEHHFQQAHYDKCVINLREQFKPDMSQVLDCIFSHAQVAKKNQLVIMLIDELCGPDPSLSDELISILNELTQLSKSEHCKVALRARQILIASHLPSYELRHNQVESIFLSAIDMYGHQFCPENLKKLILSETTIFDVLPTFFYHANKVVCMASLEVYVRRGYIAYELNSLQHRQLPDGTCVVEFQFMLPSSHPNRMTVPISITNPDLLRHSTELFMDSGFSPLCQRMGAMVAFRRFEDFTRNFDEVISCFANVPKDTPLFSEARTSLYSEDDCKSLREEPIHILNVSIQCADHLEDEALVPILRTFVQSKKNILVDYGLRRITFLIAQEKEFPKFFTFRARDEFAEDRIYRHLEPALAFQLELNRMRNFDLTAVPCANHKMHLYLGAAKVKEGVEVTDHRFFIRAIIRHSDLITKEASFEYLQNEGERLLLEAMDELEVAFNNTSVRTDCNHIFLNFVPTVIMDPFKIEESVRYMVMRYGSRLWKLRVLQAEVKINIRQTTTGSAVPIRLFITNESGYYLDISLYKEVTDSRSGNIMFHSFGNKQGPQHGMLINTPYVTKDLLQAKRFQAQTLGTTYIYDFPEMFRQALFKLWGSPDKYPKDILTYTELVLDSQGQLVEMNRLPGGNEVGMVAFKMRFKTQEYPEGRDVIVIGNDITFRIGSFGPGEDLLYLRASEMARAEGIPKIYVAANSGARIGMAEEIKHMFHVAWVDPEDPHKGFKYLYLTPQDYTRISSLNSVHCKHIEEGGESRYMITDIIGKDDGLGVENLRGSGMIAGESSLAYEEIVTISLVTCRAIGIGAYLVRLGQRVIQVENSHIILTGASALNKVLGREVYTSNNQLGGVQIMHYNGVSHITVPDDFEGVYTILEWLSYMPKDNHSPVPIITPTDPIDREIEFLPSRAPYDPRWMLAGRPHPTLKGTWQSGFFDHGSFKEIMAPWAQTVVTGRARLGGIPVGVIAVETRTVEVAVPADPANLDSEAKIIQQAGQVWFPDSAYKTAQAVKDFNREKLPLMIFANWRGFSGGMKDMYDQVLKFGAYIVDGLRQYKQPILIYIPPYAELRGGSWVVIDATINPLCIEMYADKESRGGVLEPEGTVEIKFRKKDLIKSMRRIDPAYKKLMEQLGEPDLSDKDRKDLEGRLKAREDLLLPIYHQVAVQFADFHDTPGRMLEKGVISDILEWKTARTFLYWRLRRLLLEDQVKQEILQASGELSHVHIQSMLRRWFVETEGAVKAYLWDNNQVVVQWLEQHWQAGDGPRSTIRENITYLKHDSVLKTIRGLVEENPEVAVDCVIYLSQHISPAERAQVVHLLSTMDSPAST
row,SMILES,pIC50
1,C[C@H](NC(=O)[C@@H](C)O)c1ccc(OC2CCN(c3ccnc(OCC4CC4)c3)C2)cc1 (stereo partly drawn) [Example 2.78],6.10
2,C[C@H](NC(=O)c1cncnc1)c1ccc(OC2CCN(c3ccnc(OCC4CC4)c3)C2)cc1 (stereo partly drawn) [Example 2.79],6.34
3,C[C@H](NC(=O)C(C)(C)F)c1ccc(OC2CCN(c3ccnc(OCC4CC4)c3)C2)cc1 (stereo partly drawn) [Example 2.80],6.91
4,C[C@H](NC(=O)c1cnn(C)c1N)c1ccc(OC2CCN(c3ccnc(OCC4CC4)c3)C2)cc1 (stereo partly drawn) [Example 2.82],6.52
5,CC(C#N)C(=O)N[C@@H](C)c1ccc(OC2CCN(c3ccnc(OCC4CC4)c3)C2)cc1 (stereo partly drawn) [Example 2.83],6.68
6,Cc1[nH]ncc1C(=O)N[C@@H](C)c1ccc(OC2CCN(c3ccnc(OCC4CC4)c3)C2)cc1 (stereo partly drawn) [Example 2.84],6.77
7,C[C@H](NC(=O)c1ccno1)c1ccc(OC2CCN(c3ccnc(OCC4CC4)c3)C2)cc1 (stereo partly drawn) [Example 2.85],6.98
8,Cc1cc(CC(=O)N[C@@H](C)c2ccc(OC3CCN(c4ccnc(OCC5CC5)c4)C3)cc2)on1 (stereo partly drawn) [Example 2.87],6.57
9,C[C@H](NC(=O)c1ccnnc1)c1ccc(OC2CCN(c3ccnc(OCC4CC4)c3)C2)cc1 (stereo partly drawn) [Example 2.88],6.56
10,C[C@H](NC(=O)c1cnco1)c1ccc(OC2CCN(c3ccc(OC[C@H]4CC4(F)F)cn3)C2)cc1 (stereo partly drawn) [Example 2.92],6.96
11,C[C@H](NC(=O)C(F)F)c1ccc(OC2CCN(c3ccnc(OCC(F)F)c3)C2)cc1 (stereo partly drawn) [Example 2.97],6.85
12,Cc1[nH]ncc1C(=O)N[C@@H](C)c1ccc(OC2CCN(c3ccnc(OCC(F)F)c3)C2)cc1 (stereo partly drawn) [Example 2.98],6.55
13,C[C@H](NC(=O)c1cn[nH]c1)c1ccc(OC2CCN(c3ccnc(OCC(F)F)c3)C2)cc1 (stereo partly drawn) [Example 2.99],7.07
14,Cc1cc(CC(=O)N[C@@H](C)c2ccc(OC3CCN(c4ccnc(OCC(F)F)c4)C3)cc2)on1 (stereo partly drawn) [Example 2.100],6.20
15,C[C@H](NC(=O)c1cnn(C)c1)c1ccc(OC2CCN(c3ccnc(OCC(F)F)c3)C2)cc1 (stereo partly drawn) [Example 2.102],6.87
16,C[C@H](NC(=O)c1cnc(N)o1)c1ccc(OC2CCN(c3ccnc(OCC(F)F)c3)C2)cc1 (stereo partly drawn) [Example 2.103],6.28

row,SMILES,pIC50
1,CC(C#N)C(=O)N[C@@H](C)c1ccc(OC2CCN(c3ccnc(OCC(F)F)c3)C2)cc1 (stereo partly drawn) [Example 2.104],6.18
2,C[C@H](NC(=O)[C@@H](C)O)c1ccc(OC2CCN(c3ccnc(OCC(F)F)c3)C2)cc1 (stereo partly drawn) [Example 2.105],6.11
3,CCC(=O)N[C@@H](C)c1ccc(OC2CCN(c3ccnc(OCC(F)F)c3)C2)cc1 (stereo partly drawn) [Example 2.106],7.06
4,C[C@H](NC(=O)c1ccno1)c1ccc(OC2CCN(c3ccnc(OCC(F)F)c3)C2)cc1 (stereo partly drawn) [Example 2.107],6.41
5,C[C@H](NC(=O)c1ccnnc1)c1ccc(OC2CCN(c3ccnc(OCC(F)F)c3)C2)cc1 (stereo partly drawn) [Example 2.108],6.15
6,C[C@H](NC(=O)C(C)(C)F)c1ccc(OC2CCN(c3ccnc(OCC(F)F)c3)C2)cc1 (stereo partly drawn) [Example 2.109],6.34
7,C[C@H](NC(=O)c1ccon1)c1ccc(OC2CCN(c3ccnc(OCC(F)F)c3)C2)cc1 (stereo partly drawn) [Example 2.110],6.58
8,C[C@H](NC(=O)c1cnco1)c1ccc(OC2CCN(c3ccnc(OCC(F)F)c3)C2)cc1 (stereo partly drawn) [Example 2.111],6.97
9,C[C@H](NC(=O)c1cnn(C)c1N)c1ccc(OC2CCN(c3ccnc(OCC(F)F)c3)C2)cc1 (stereo partly drawn) [Example 2.112],6.53
10,C[C@H](NC(=O)c1cnn(C)c1Cl)c1ccc(OC2CCN(c3ccnc(OCC(F)F)c3)C2)cc1 (stereo partly drawn) [Example 2.114],6.21
11,C[C@H](NC(=O)CO)c1ccc(OC2CCN(c3ccnc(OCC(F)F)c3)C2)cc1 (stereo partly drawn) [Example 2.115],6.06
12,C[C@H](NC(=O)CC#N)c1ccc(OC2CCN(c3ccnc(OCC(F)F)c3)C2)cc1 (stereo partly drawn) [Example 2.116],6.44
13,Cc1[nH]ncc1C(=O)N[C@@H](C)c1ccc(OC2CCN(c3ccc(OCC4CC4(F)F)cn3)C2)cc1 (stereo partly drawn) [Example 2.118],6.77
14,C[C@H](NC(=O)CC#N)c1ccc(OC2CCN(c3ccc(OCC4CC4(F)F)cn3)C2)cc1 (stereo partly drawn) [Example 2.119],6.63
15,C[C@H](NC(=O)c1cnco1)c1ccc(OC2CCN(c3cccc(C(F)(F)F)n3)C2)cc1 (stereo partly drawn) [Example 2.122],7.07
16,CCNC(=O)N[C@@H](C)c1ccc(OC2CCN(c3ccc(OCC4CC4(F)F)cn3)C2)cc1 (stereo partly drawn) [Example 3.3],6.82

# Continued, values first:
row,pIC50,SMILES
1,7.46,C[C@H](NC(=O)C(F)F)c1ccc(OC2CCN(c3ccnc(OCC4CC4)c3)C2)cc1 (stereo partly drawn) [Example 2.81]
2,7.20,C[C@H](NC(=O)c1cn[nH]c1)c1ccc(OC2CCN(c3ccnc(OCC4CC4)c3)C2)cc1 (stereo partly drawn) [Example 2.86]
3,8.05,CC(=O)Nc1nc(C)c(C(=O)N[C@@H](C)c2ccc(OC3CCN(c4ccc(OC[C@H]5CC5(F)F)cn4)C3)cc2)s1 (stereo partly drawn) [Example 2.90]
4,7.17,CCC(=O)N[C@@H](C)c1ccc(OC2CCN(c3ccc(OC[C@H]4CC4(F)F)cn3)C2)cc1 (stereo partly drawn) [Example 2.91]
5,7.40,C[C@H](NC(=O)c1cn[nH]c1)c1ccc(OC2CCN(c3ccc(OC[C@H]4CC4(F)F)cn3)C2)cc1 (stereo partly drawn) [Example 2.93]
6,7.08,C[C@H](NC(=O)C1CC1)c1ccc(OC2CCN(c3ccc(OC[C@H]4CC4(F)F)cn3)C2)cc1 (stereo partly drawn) [Example 2.94]
7,7.31,Cc1nocc1C(=O)N[C@@H](C)c1ccc(OC2CCN(c3ccnc(OCC(F)F)c3)C2)cc1 (stereo partly drawn) [Example 2.95]
8,7.26,COCC(=O)Nc1nc(C)c(C(=O)N[C@@H](C)c2ccc(OC3CCN(c4ccnc(OCC(F)F)c4)C3)cc2)s1 (stereo partly drawn) [Example 2.96]
9,7.12,C[C@H](NC(=O)c1cncs1)c1ccc(OC2CCN(c3ccnc(OCC(F)F)c3)C2)cc1 (stereo partly drawn) [Example 2.101]
10,7.11,C[C@H](NC(=O)C(F)(F)F)c1ccc(OC2CCN(c3ccnc(OCC(F)F)c3)C2)cc1 (stereo partly drawn) [Example 2.113]
11,7.43,COCC(=O)Nc1nc(C)c(C(=O)N[C@@H](C)c2ccc(OC3CCN(c4ccc(OCC5CC5(F)F)cn4)C3)cc2)s1 (stereo partly drawn) [Example 2.120]
12,7.37,C[C@H](NC(=O)c1cnco1)c1ccc(OC2CCN(c3ccc(OCC4CC4(F)F)cn3)C2)cc1 (stereo partly drawn) [Example 2.121]
13,7.24,CC(=O)Nc1nc(C)c(C(=O)N[C@@H](C)c2ccc(OC3CCN(c4ccnc(N5CCC(F)(F)C5)c4F)C3)cc2)s1 (stereo partly drawn) [Example 2.123]
14,7.14,C[C@H](NC(=O)C1(C)CC1)c1ccc(OC2CCN(c3ccnc(N4CCC(F)(F)C4)c3F)C2)cc1 (stereo partly drawn) [Example 2.124]
15,7.22,C[C@H](NC(=O)c1cncs1)c1ccc(OC2CCN(c3ccnc(N4CCC(F)(F)C4)c3F)C2)cc1 (stereo partly drawn) [Example 2.125]
16,7.35,C[C@H](NC(=O)c1cnco1)c1ccc(OC2CCN(c3ccnc(N4CCC(F)(F)C4)c3F)C2)cc1 (stereo partly drawn) [Example 2.126]
17,7.09,"C[C@H](NC(=O)Nc1ccon1)c1ccc(O[C@@H]2CCN(c3ccc(OCC4CC4(F)F)cn3)C2)cc1 (stereo partly drawn) [Example 3.1, 1-((1S)-1-(4-((3R)-1-(5-((2,2-Difluorocyclopropyl)methoxy)pyridin-2-yl)pyrrolidin-3-yloxy)phenyl)ethyl)-3-(isoxazol-3-yl)urea]"
18,7.19,CC(C)Oc1cc(N2CCC(Oc3ccc([C@H](C)NC(=O)N(C)C)cc3)C2)ccn1 (stereo partly drawn) [Example 3.2]
19,7.12,CCNC(=O)N[C@@H](C)c1ccc(OC2CCN(c3ccnc(OCC4CC4)c3)C2)cc1 (stereo partly drawn) [Example 3.4]

# — patent US8877741B2, “Pyrrolidine derivatives, pharmaceutical compositions and uses thereof” (Boehringer Ingelheim International GmbH, priority 2013, dated 2014)
